Data from patent US7566712B2, “Biaryl piperazinyl-pyridine analogues” (Neurogen Corporation, priority 2003, dated 2009).

Target: T1, human capsaicin receptor (Homo sapiens, UniProt Q8NER1)
T1 construct: pBK-CMV expression construct encoding the full length human capsaicin receptor; expressed in transfected cells
Assay: Calcium mobilization assay, determination of antagonist activity (Example 6)
Format: cell-based
Conditions: Table II; determined as described in Example 6 (antagonist activity); "*" = 1 micromolar or less
Outline: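 HEK293 clonal lines stably expressing full-length human capsaicin receptor, loaded with Fluo-3 AM in KRH buffer pH 7.4, 1–2 h at 37 °C. Compounds (1–5 μM final) preincubated 0.5–6 h at room temperature, then capsaicin at its EC50 added. FLIPR/Fluoroskan calcium signal; IC50 as 50% decrease of capsaicin response.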

T1 sequence (Q8NER1 whole entry): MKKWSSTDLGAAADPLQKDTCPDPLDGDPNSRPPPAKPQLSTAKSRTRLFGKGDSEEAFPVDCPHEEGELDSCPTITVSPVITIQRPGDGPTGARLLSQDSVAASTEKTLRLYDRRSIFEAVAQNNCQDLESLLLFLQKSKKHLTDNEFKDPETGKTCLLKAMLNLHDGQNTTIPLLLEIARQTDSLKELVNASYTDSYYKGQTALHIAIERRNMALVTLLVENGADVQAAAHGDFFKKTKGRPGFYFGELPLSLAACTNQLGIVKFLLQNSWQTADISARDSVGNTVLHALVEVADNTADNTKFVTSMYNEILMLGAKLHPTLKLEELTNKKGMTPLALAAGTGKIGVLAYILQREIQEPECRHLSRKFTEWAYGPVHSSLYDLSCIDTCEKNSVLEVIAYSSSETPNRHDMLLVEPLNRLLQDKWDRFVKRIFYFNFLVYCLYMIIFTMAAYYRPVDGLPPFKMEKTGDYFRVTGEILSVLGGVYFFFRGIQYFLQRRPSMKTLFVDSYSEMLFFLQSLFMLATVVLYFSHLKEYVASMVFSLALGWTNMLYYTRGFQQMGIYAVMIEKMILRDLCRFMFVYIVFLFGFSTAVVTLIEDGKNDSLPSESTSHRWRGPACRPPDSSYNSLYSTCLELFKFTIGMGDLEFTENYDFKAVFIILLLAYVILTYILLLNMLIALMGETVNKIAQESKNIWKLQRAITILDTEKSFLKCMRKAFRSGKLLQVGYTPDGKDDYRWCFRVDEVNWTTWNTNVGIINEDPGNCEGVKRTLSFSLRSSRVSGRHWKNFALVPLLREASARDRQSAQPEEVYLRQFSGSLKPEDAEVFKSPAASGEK

SMILES | IC50 [nM]
C[C@@H]1CN(c2ncccc2C(F)(F)F)CCN1c1cc(-c2ccc(F)c(F)c2)nc(N2CCCCC2)n1 [Example 793, 4-(3,4-difluorophenyl)-6-{(2R)-2-methyl-4-[3-(trifluoromethyl)pyridin-2-yl]piperazin-1-yl}-2-piperidin-1-ylpyrimidine] | ≤ 1000
Cc1cc(-c2cc(N3CCN(c4ncccc4C(F)(F)F)C[C@H]3C)nc(N3CCC3(C)C)n2)ccc1F [Example 794, 2-(2,2-dimethylazetidin-1-yl)-4-(4-fluoro-3-methylphenyl)-6-{(2R)-2-methyl-4-[3-(trifluoromethyl)pyridin-2-yl]piperazin-1-yl}pyrimidine] | ≤ 1000
Cc1cc(-c2cc(N3CCN(c4ncccc4C(F)(F)F)CC3)nc(N(C)C(C)CO)n2)ccc1F (centres unmarked) [Example 795] | ≤ 1000
CCOC(=O)C1CCN(c2nc(-c3ccc(F)c(Cl)c3)cc(N3CCN(c4ncccc4C(F)(F)F)CC3)n2)CC1 [Example 797, ethyl 1-(4-(3-chloro-4-fluorophenyl)-6-{4-[3-(trifluoromethyl)pyridin-2-yl]piperazin-1-yl}pyrimidin-2-yl)piperidine-4-carboxylate] | ≤ 1000
CC1=NCCN1c1nc(-c2ccc(F)c(Cl)c2)cc(N2CCN(c3ncccc3C(F)(F)F)CC2)n1 [Example 801, 4-(3-chloro-4-fluorophenyl)-2-(2-methyl-4,5-dihydro-1H-imidazol-1-yl)-6-{4-[3-(trifluoromethyl)pyridin-2-yl]piperazin-1-yl}pyrimidine] | ≤ 1000
Cc1ccc(-c2cc(N3CCN(c4ncccc4Cl)C[C@H]3C)nc(N3CCCC3)n2)cc1F [Example 802] | ≤ 1000
Cc1ccc(-c2cc(N3CCN(c4ncccc4Cl)C[C@H]3C)nc(N3CCCCC3)n2)cc1F [Example 804, 4-[(2R)-4-(3-chloropyridin-2-yl)-2-methylpiperazin-1-yl]-6-(3-fluoro-4-methylphenyl)-2-piperidin-1-ylpyrimidine] | ≤ 1000
Cc1ccc(-c2cc(N3CCN(c4ncccc4Cl)C[C@H]3C)nc(N3CCCC3)n2)cc1C [Example 805, 4-[(2R)-4-(3-chloropyridin-2-yl)-2-methylpiperazin-1-yl]-6-(3,4-dimethylphenyl)-2-pyrrolidin-1-ylpyrimidine] | ≤ 1000
C[C@@H]1CN(c2ncccc2Cl)CCN1c1cc(-c2cncc(Cl)c2)nc(N2CCCC2)n1 [Example 806, 4-(5-chloropyridin-3-yl)-6-[(2R)-4-(3-chloropyridin-2-yl)-2-methylpiperazin-1-yl]-2-pyrrolidin-1-ylpyrimidine] | ≤ 1000
Cc1ccc(-c2cc(N3CCN(c4ncccc4Cl)C[C@H]3C)nc(N3CCCC3C)n2)cc1C (stereo partly drawn) [Example 808, 4-[(2R)-4-(3-chloropyridin-2-yl)-2-methylpiperazin-1-yl]-6-(3,4-dimethylphenyl)-2-(2-methylpyrrolidin-1-yl)pyrimidine] | ≤ 1000
COc1ccc(-c2cc(N3CCN(c4ncccc4Cl)C[C@H]3C)nc(N3CCCC3)n2)cc1C [Example 809, 4-[(2R)-4-(3-chloropyridin-2-yl)-2-methylpiperazin-1-yl]-6-(4-methoxy-3-methylphenyl)-2-pyrrolidin-1-ylpyrimidine] | ≤ 1000
COc1ccc(-c2cc(N3CCN(c4ncccc4Cl)C[C@H]3C)nc(N3CCCC3C)n2)cc1C (stereo partly drawn) [Example 810, 4-[(2R)-4-(3-chloropyridin-2-yl)-2-methylpiperazin-1-yl]-6-(4-methoxy-3-methylphenyl)-2-(2-methylpyrrolidin-1-yl)pyrimidine] | ≤ 1000
CC(C)N(C)C1CN(c2nc(-c3ccc(F)c(Cl)c3)cc(N3CCN(c4ncccc4C(F)(F)F)CC3)n2)C1 [Example 811, 1-(4-(3-chloro-4-fluorophenyl)-6-{4-[3-(trifluoromethyl)pyridin-2-yl]piperazin-1-yl}pyrimidin-2-yl)-N-isopropyl-N-methylazetidin-3-amine] | ≤ 1000
CCOC(=O)CN(C)c1nc(-c2ccc(F)c(Cl)c2)cc(N2CCN(c3ncccc3C(F)(F)F)CC2)n1 [Example 812, ethyl N-(4-(3-chloro-4-fluorophenyl)-6-{4-[3-(trifluoromethyl)pyridin-2-yl]piperazin-1-yl}pyrimidin-2-yl)-N-methylglycinate] | ≤ 1000
[O-][n+]1ccc(-c2nc(-c3ccc(F)c(Cl)c3)cc(N3CCN(c4ncccc4C(F)(F)F)CC3)n2)cc1 [Example 813, 4-(3-chloro-4-fluorophenyl)-2-(1-oxidopyridin-4-yl)-6-{4-[3-(trifluoromethyl)pyridin-2-yl]piperazin-1-nlyl}pyrimidine] | ≤ 1000
C[C@@H]1CN(c2nccnc2Cl)CCN1c1cc(-c2ccc(F)c(F)c2)nc(N2CCCC2)n1 [Example 820, 4-[(2R)-4-(3-chloropyrazin-2-yl)-2-methylpiperazin-1-yl]-6-(3,4-difluorophenyl)-2-pyrrolidin-1-ylpyrimidine] | ≤ 1000
CC1CCCN1c1nc(-c2ccc(F)c(F)c2)cc(N2CCN(c3nccnc3Cl)C[C@H]2C)n1 (some centres unmarked) [Example 821, 4-[4-(3-chloropyrazin-2-yl)-2-methylpiperazin-1-yl]-6-(3,4-difluorophenyl)-2-(2-methylpyrrolidin-1-yl)pyrimidine] | ≤ 1000
C[C@@H]1CN(c2nccnc2Cl)CCN1c1cc(-c2ccc(F)c(F)c2)nc(N2CCOCC2)n1 [Example 822, 4-[4-[(2R)-4-(3-chloropyrazin-2-yl)-2-methylpiperazin-1-yl]-6-(3,4-difluorophenyl)pyrimidin-2-yl]morpholine] | ≤ 1000

More lines, now with the values ahead:

IC50 [nM] | SMILES
≤ 1000 | CC(C)c1cc(-c2cc(N3CCN(c4ncccc4C(F)(F)F)CC3)nc(N3CCCC3C)n2)ccn1 (centres unmarked) [Example 796, 4-(2-isopropylpyridin-4-yl)-2-(2-methylpyrrolidin-1-yl)-6-{4-[3-(trifluoromethyl)pyridin-2-yl]piperazin-1-yl}pyrimidine]
≤ 1000 | CCOC(=O)C1CCCN(c2nc(-c3ccc(F)c(Cl)c3)cc(N3CCN(c4ncccc4C(F)(F)F)CC3)n2)C1 (centres unmarked) [Example 798, ethyl 1-(4-(3-chloro-4-fluorophenyl)-6-{4-[3-(trifluoromethyl)pyridin-2-yl]piperazin-1-yl}pyrimidin-2-yl)piperidine-3-carboxylate]
≤ 1000 | O=C(O)C1CCN(c2nc(-c3ccc(F)c(Cl)c3)cc(N3CCN(c4ncccc4C(F)(F)F)CC3)n2)CC1 [Example 799, 1-(4-(3-chloro-4-fluorophenyl)-6-{4-[3-(trifluoromethyl)pyridin-2-yl]piperazin-1-yl}pyrimidin-2-yl)piperidine-4-carboxylic acid]
≤ 1000 | O=C(O)C1CCCN(c2nc(-c3ccc(F)c(Cl)c3)cc(N3CCN(c4ncccc4C(F)(F)F)CC3)n2)C1 (centres unmarked) [Example 800, 1-(4-(3-chloro-4-fluorophenyl)-6-{4-[3-(trifluoromethyl)pyridin-2-yl]piperazin-1-yl}pyrimidin-2-yl)piperidine-3-carboxylic acid]
≤ 1000 | Cc1ccc(-c2cc(N3CCN(c4ncccc4Cl)C[C@H]3C)nc(N3CCCC3C)n2)cc1F (stereo partly drawn) [Example 803, 4-[(2R)-4-(3-chloropyridin-2-yl)-2-methylpiperazin-1-yl]-6-(3-fluoro-4-methylphenyl)-2-(2-methylpyrrolidin-1-yl)pyrimidine]
≤ 1000 | CC1CCCN1c1nc(-c2cncc(Cl)c2)cc(N2CCN(c3ncccc3Cl)C[C@H]2C)n1 (some centres unmarked) [Example 807]
≤ 1000 | Cc1cc(N)cnc1N1CCN(c2cc(-c3ccc(F)c(Cl)c3)nc(N3CCCC3C)n2)CC1 (centres unmarked) [Example 814, 6-{4-[6-(3-chloro-4-fluorophenyl)-2-(2-methylpyrrolidin-1-yl)pyrimidin-4-yl]piperazin-1-yl}-5-methylpyridin-3-amine]
≤ 1000 | Cc1cc(O)cnc1N1CCN(c2cc(-c3ccc(F)c(Cl)c3)nc(N3CCCC3C)n2)CC1 (centres unmarked) [Example 815, 6-{4-[6-(3-chloro-4-fluorophenyl)-2-(2-methylpyrrolidin-1-yl)pyrimidin-4-yl]piperazin-1-yl}-5-methylpyridin-3-ol]
≤ 1000 | CC(=O)Nc1cnc(N2CCN(c3cc(-c4ccc(F)c(Cl)c4)nc(N4CCCC4C)n3)CC2)c(C)c1 (centres unmarked) [Example 816, N-(6-{4-[6-(3-chloro-4-fluorophenyl)-2-(2-methylpyrrolidin-1-yl)pyrimidin-4-yl]piperazin-1-yl}-5-methylpyridin-3-yl)acetamide]
≤ 1000 | Cc1cc(NS(C)(=O)=O)cnc1N1CCN(c2cc(-c3ccc(F)c(Cl)c3)nc(N3CCCC3C)n2)CC1 (centres unmarked) [Example 817, N-(6-{4-[6-(3-chloro-4-fluorophenyl)-2-(2-methylpyrrolidin-1-yl)pyrimidin-4-yl]piperazin-1-yl}-5-methylpyridin-3-yl)methanesulfonamide]
≤ 1000 | COc1cnc(N2CCN(c3cc(-c4ccc(F)c(Cl)c4)nc(N4CCCC4C)n3)CC2)c(C)c1 (centres unmarked) [Example 818, 4-(3-chloro-4-fluorophenyl)-6-[4-(5-methoxy-3-methylpyridin-2-yl)piperazin-1-yl]-2-(2-methylpyrrolidin-1-yl)pyrimidine]
≤ 1000 | CCCN1CCN(c2nc(-c3ccc(F)c(Cl)c3)cc(N3CCN(c4ncc(N)cc4C)CC3)n2)CC1 [Example 819, 6-{4-[6-(3-chloro-4-fluorophenyl)-2-(4-propylpiperazin-1-yl)pyrimidin-4-yl]piperazin-1-yl}-5-methylpyridin-3-amine]
≤ 1000 | CC1CCCN1c1nc(-c2ccc(F)c(Cl)c2)cc(N2CCN(c3ncc(C(=O)N(C)C)cc3Cl)CC2)n1 (centres unmarked) [Example 824, 5-chloro-6-{4-[6-(3-chloro-4-fluorophenyl)-2-(2-methylpyrrolidin-1-yl)pyrimidin-4-yl]piperazin-1-yl}-N,N-dimethylnicotinamide]
≤ 1000 | CNC(=O)c1cnc(N2CCN(c3cc(-c4ccc(F)c(Cl)c4)nc(N4CCCC4C)n3)CC2)c(Cl)c1 (centres unmarked) [Example 825, 5-chloro-6-{4-[6-(3-chloro-4-fluorophenyl)-2-(2-methylpyrrolidin-1-yl)pyrimidin-4-yl]piperazin-1-yl}-N-methylnicotinamide]
